Reference: US20050209157A1, “Short bioactive peptides and methods for their use” (priority 2001, published 2005)
In brackets after ≈: the same amount, converted by molar mass. Where two headings read alike, the source gives them in different places. No end group written: not given here.

Key:
[1] = test system: Staph. aureus 29213; assay: microbe, parasite or virus in culture; conditions: for MBC: Staphylococcus aureus, 29213, read-out: MBC, Without peptide; for MBC, With 5 μg/mL peptide: with 5 μg/mL peptide Shiva-10
Text: This experiment determined the peptide MBC in the absence of the antimicrobial agent, or in the presence of the indicated concentration of antimicrobial agent

[2] = test system: Escherichia coli 25922; assay: microbe, parasite or virus in culture
Text: Synergy between peptide Shiva-10 (SEQ ID NO:4) and various antimicrobial agents was investigated against Escherichia coli 25922.
Synergy between tetracycline and various peptides was investigated against Escherichia coli 25922 MBC. […] When combined with the peptides, the concentration of tetracycline was held at 1.5 ppm.

[3] = test system: S. aureus (MRSA); assay type: cell-based, Staphylococcus aureus; conditions: for MIC S. aureus SAP0017: in µg/mL
[4] = test system: S. epidermidis C621; assay type: cell-based, Staphylococcus epidermidis
[5] = test system: E. coli UB1005; assay type: cell-based, Escherichia coli
[6] = test system: S. typhimurium 14028S; assay type: cell-based, Salmonella typhimurium
[7] = test system: P. aeruginosa H374; assay type: cell-based, Pseudomonas aeruginosa; conditions: Table 14; in µg/mL
[8] = test system: Pseudomonas aeruginosa H187; assay type: cell-based; conditions: in µg/mL
[9] = test system: Candida albicans 105; assay type: cell-based; conditions: in µg/mL
[10] = test system: Candida tropicalis ATCC13803; assay: Antimicrobial assays II, NCCLS broth microdilution MIC; assay type: cell-based; conditions: Table 10
Procedure: Anti-microbial activity against a broader range of pathogens (including clinical strains) than were tested in Example 2. It should be noted that somewhat different protocols were employed for the assays in Example 2 and Example 3.
MICs were determined for this Example using a slightly modified version of the NCCLS (National Committee for Clinical Laboratory Standards) broth microdilution method as described previously (Steinberg et al., AAC 41: 1738, 1997). Briefly, antimicrobial agents were prepared as 10× concentrates in the most appropriate solvent. For the peptide, 0.01% acetic acid containing 0.2% bovine serum albumin as a carrier protein was used. Inocula were prepared by resuspending colonies from a BAP in medium and adjusting the suspension to match that of a 0.5 McFarland standard. The suspension was diluted into fresh medium (as recommended by NCCLS for the organism) to give 2×10^5 to 7×10^5 CFU/ml for bacteria or 2×10^3 to 7×10^3 CFU/ml for Candida. After dispensing 100 μl aliquots of the microbial suspension into each well of a 96-well polypropylene microtiter plate, 11 μl of test compound was added. […] For facultative anaerobes incubation was performed in 7% carbon dioxide and for strict anaerobes in an oxygen free environment maintained using a standard anaerobic “jar”. All MICs were performed three times and the mean value determined.

[11] = test system: Candida glabrata ATCC15126; assay: as above; assay type: cell-based; conditions: Table 10; in µg/mL
[12] = in vitro; assay type: cell-based, human; conditions: human, human red blood cells, pH 7, hemolytic assay, concentration at 50% hemolysis, 1 hour at 37° C.; read-out: LD50
[13] = test system: Pseudomonas aeruginosa ATCC 9027; assay: Antimicrobial assay I, MIC by OD measurement; assay type: cell-based; conditions: 37° C. for 24 hours, absorbance 620 nm
[14] = test system: Staphylococcus aureus ATCC 6538; assay: Antimicrobial assay I, MIC by OD measurement; assay type: cell-based; conditions: 37° C. for 24 hours, absorbance 620 nm
[15] = test system: yeast (Saccharomyces cerevisiae); assay: Antimicrobial assay I, yeast assay in RPMI 1640; assay type: cell-based; conditions: RPMI 1640 media
[16] = test system: S. pyogenes M76; assay: Antimicrobial assays II, NCCLS broth microdilution MIC; assay type: cell-based, Streptococcus pyogenes; conditions: mean of three; 16 to 20 hours at 35° C.
[17] = test system: S. pyogenes ATCC19615; assay: as above; assay type: cell-based, Streptococcus pyogenes; conditions: mean of three, in µg/mL
[18] = test system: S. pneumoniae C718; assay: as above; assay type: cell-based, Streptococcus pneumoniae; conditions: mean of three
[19] = test system: P. acne ATCC 6919; assay: as above; assay type: cell-based, Propionibacterium acnes; conditions: mean of three, in µg/mL
[20] = test system: BMKC; assay: Anti-cancer assay, MTT, LD50; assay type: cell-based; conditions: BMKC cloned melanoma line, 24 hours with peptide
Text: (§1) Numbers are LD50 values (μg/mL).

[21] = test system: H1299; assay: Anti-cancer assay, MTT, LD50; assay type: cell-based; conditions: 24 hours with peptide, lung large cell carcinoma
Text: as §1

[22] = test system: HeLaS3; assay: Anti-cancer assay, MTT, LD50; assay type: cell-based; conditions: 24 hours with peptide, cervical carcinoma
Text: as §1

[23] = test system: MCF7; assay: Anti-cancer assay, MTT, LD50; assay type: cell-based; conditions: MCF7 breast adenocarcinoma line, MTT, 24 hours with peptide
Text: as §1

[24] = test system: PC3; assay: Anti-cancer assay, MTT, LD50; assay type: cell-based; conditions: 24 hours with peptide, prostate adenocarcinoma
Text: as §1

[25] = test system: SW480; assay: Anti-cancer assay, MTT, LD50; assay type: cell-based; conditions: SW480 colon adenocarcinoma line, 24 hours with peptide
Text: as §1

[26] = test system: P. aeruginosa H374; assay type: cell-based, Pseudomonas aeruginosa; conditions: for FIC Index: 0.5 or less = synergy
How it was run: (§2)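 Synergy against efflux-mutant strains: two-fold dilutions of nalidixic acid or chloramphenicol tested with peptide held at ¼ of its MIC.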

[27] = test system: P. aeruginosa H774; assay type: cell-based, Pseudomonas aeruginosa; conditions: P. aeruginosa H744; nalidixic acid + peptide at ¼ MIC; 0.5 or less = synergy
How it was run: as §2

[28] = test system: P. aeruginosa; assay type: cell-based, Pseudomonas aeruginosa; conditions: P. aeruginosa H744; MIC of nalidixic acid with peptide at ¼ MIC
How it was run: as §2

[29] = test system: WI38; conditions: MTT, 24 hours with peptide; normal fibroblast line
[30] = in vitro; conditions: human, WI38 normal lung fibroblast cells, LD50 WI38, WI38 normal lung fibroblast line, MTT, 24 hours with peptide
[31] = Escherichia coli, 25922, read-out: MBC, Without peptide
[32] = mean of three, 16 to 20 hours at 35° C.

NC[C@H]1O[C@H](O[C@H]2[C@H](O)[C@@H](O[C@H]3O[C@H](CO)[C@@H](O)[C@H](N)[C@H]3O)[C@H](N)C[C@@H]2N)[C@H](N)C[C@@H]1O [Tobramycin]
MBC [1]: 25 µg/mL (≈ 53.5 µM) | MBC, With 5 μg/mL peptide [1]: 10 µg/mL (≈ 21.4 µM)

CC1(C)S[C@@H]2[C@H](NC(=O)[C@H](C(=O)O)c3ccsc3)C(=O)N2[C@H]1C(=O)O [Ticarcillin]
MBC [2, 31]: 100 µg/mL | MBC, With peptide ([2]; with 15 μg/mL peptide Shiva-10): 50 µg/mL | MBC [1]: 25 µg/mL (≈ 65 µM) | MBC, With 5 μg/mL peptide [1]: 15 µg/mL (≈ 39 µM)

FALALKALKK-NH2 [P169 (130)]
MIC S. aureus SAP0017 ([3]; Table 11, strain SAP0017): >128 | MIC S. aureus SAP0017 ([3]; Table 15, strain SAP0017): >128 | MIC S. epidermidis C621 ([4]; Table 15): 32 µg/mL | MIC E. coli UB1005 ([5]; Table 11): 32 µg/mL | MIC E. coli UB1005 ([5]; Table 14): 64 µg/mL | MIC S. typhimurium 14028S ([6]; Table 11): 64 µg/mL | MIC S. typhimurium 14028S ([6]; Table 14): 64 µg/mL | MIC P. aeruginosa H374 [7]: 128 | MIC P. aeruginosa H187 ([8]; Table 11): 128 | MIC P. aeruginosa H187 ([8]; Table 15): >128 | MIC C. albicans 105 ([9]; Table 10): 64 | MIC C. albicans 105 ([9]; Table 15): 64 | MIC C. tropicalis ATCC13803 [10]: 8 µg/mL | MIC C. glabrata ATCC15126 [11]: 128

CC(C)C[C@H](NC(=O)[C@H](C)NC(=O)[C@H](CC(C)C)NC(=O)[C@H](C)NC(=O)[C@H](CC(C)C)NC(=O)[C@H](CCCCN)NC(=O)[C@H](C)NC(=O)[C@H](CC(C)C)NC(=O)[C@H](CCCCN)NC(=O)[C@H](CCCCN)NC(=O)[C@H](C)NC(=O)[C@H](CC(C)C)NC(=O)[C@H](CCCCN)NC(=O)[C@H](CCCCN)NC(=O)[C@H](CC(C)C)NC(=O)[C@H](CCCCN)NC(=O)[C@H](CCCCN)NC(=O)[C@H](C)NC(=O)[C@H](CC(C)C)NC(=O)[C@H](CCCCN)NC(=O)[C@H](CCCCN)NC(=O)[C@H](C)NC(=O)[C@@H](N)Cc1ccccc1)C(N)=O [P11, reference compound]
HC50 at 1 h [12]: 76 µg/mL | MBC, Without peptide ([2]; agent alone): 50 µg/mL | MBC, Without peptide ([1]; agent alone): 200 µg/mL (≈ 78.9 µM)

CC1(C)S[C@@H]2[C@H](NC(=O)[C@H](N)c3ccccc3)C(=O)N2[C@H]1C(=O)O [Ampicillin]
MBC [1]: 5 µg/mL (≈ 14.3 µM) | MBC, With 5 μg/mL peptide [1]: 2.5 µg/mL (≈ 7.15 µM)

CC(C)C[C@H](NC(=O)[C@H](C)NC(=O)[C@H](CC(C)C)NC(=O)[C@H](CCCCN)NC(=O)[C@H](C)NC(=O)[C@H](CC(C)C)NC(=O)[C@H](CCCCN)NC(=O)[C@H](CCCCN)NC(=O)[C@H](C)NC(=O)[C@H](CC(C)C)NC(=O)[C@H](CCCCN)NC(=O)[C@H](C)NC(=O)[C@H](CC(C)C)NC(=O)[C@H](CCCCN)NC(=O)[C@H](CCCCN)NC(=O)[C@H](C)NC(=O)[C@@H](N)Cc1ccccc1)C(N)=O [P35]
paerug9027 (MIC) [13]: 200 µg/mL | staph6538 (MIC) [14]: 5 µg/mL | yeast (MIC or MFC) [15]: 25 µg/mL | S. aureus (MRSA) MIC [3, 32]: 8 µg/mL | S. epidermidis C621 MIC [4, 32]: 4 µg/mL | S. pyogenes M76 MIC [16]: 4 µg/mL | S. pyogenes MIC [17]: 16 | S. pneumoniae MIC [18]: 4 µg/mL | P. acne MIC [19]: 4 | LD50 BMKC [20]: 7 µg/mL | H1299 LD50 [21]: 16 µg/mL | HeLaS3 LD50 [22]: 27 µg/mL | LD50 MCF7 [23]: 9 µg/mL | PC3 LD50 [24]: 5 µg/mL | LD50 SW480 [25]: 14 µg/mL | HC50 at 1 h [12]: 200 µg/mL | MBC of peptide ([1]; in the presence of Cefoperazone ([…])): 20 µg/mL | MBC of peptide ([1]; in the presence of Vancomycin (1 ppm)): 32 µg/mL | MBC of peptide ([1]; peptide alone): 50 µg/mL | MIC Cm-comb. ([26]; MIC of chloramphenicol with peptide at ¼ MIC): 16 µg/mL | MIC Nal-comb. ([26]; MIC of nalidixic acid with peptide at ¼ MIC): 10,000 μg/ml | FIC Index ([26]; chloramphenicol + peptide at ¼ MIC): 1.25 | FIC Index ([26]; nalidixic acid + peptide at ¼ MIC, FIC=0.25+MIC comb/MIC alone): 2.25 | FIC Index [27]: 1.25 | MIC Nal-comb. [28]: 624 µg/mL | WI38 LD50 [29]: 8 µg/mL | CC50 at 24 h [30]: 8 µg/mL (≈ 4.31 µM)

CN(C)[C@@H]1C(O)=C(C(N)=O)C(=O)[C@@]2(O)C(O)=C3C(=O)c4c(O)cccc4[C@@](C)(O)[C@H]3C[C@@H]12 [Tetracycline]
MBC ([2]; Escherichia coli, 25922, read-out: MBC of tetracycline): 10 µg/mL | MBC [2, 31]: 10 µg/mL | MBC, With peptide ([2]; with 5 μg/mL peptide Shiva-10): 2.5 µg/mL | MBC [1]: 10 µg/mL (≈ 22.5 µM) | MBC, With 5 μg/mL peptide [1]: 1 µg/mL (≈ 2.25 µM)

CCN1CCN(C(=O)N[C@@H](C(=O)N[C@@H]2C(=O)N3C(C(=O)O)=C(CSc4nnnn4C)CS[C@H]23)c2ccc(O)cc2)C(=O)C1=O [Cefoperazone]
MBC [2, 31]: 150 µg/mL | MBC, With peptide ([2]; with 15 μg/mL peptide Shiva-10): 2.5 µg/mL | MBC [1]: 10 µg/mL (≈ 15.5 µM) | MBC, With 5 μg/mL peptide [1]: 2.5 µg/mL (≈ 3.87 µM)
